Test results from ChEMBL document CHEMBL1687743, “Intravenous doripenem at 500 milligrams versus levofloxacin at 250 milligrams, with an option to switch to oral therapy, for treatment of complicated lower urinary tract infection and pyelonephritis” (Antimicrob Agents Chemother, 2009).

Columns and labels:
Homo sapiens [1] = test: Treatment emergent adverse event in intent-to-treat patient with complicated urinary tract infection assessed as constipation at 250 […], iv qd for 10 days; type: organism-based; design: route intravenous; conditions: in vivo, 240 h
Pseudomonas aeruginosa [2] = test: Antibacterial activity against levofloxacin-resistant Pseudomonas aeruginosa
Homo sapiens [3] = test: Treatment emergent adverse event in intent-to-treat patient with complicated urinary tract infection assessed as insomnia at 250 […], iv qd for 10 days; type: ADME, organism-based, Urine; design: route intravenous; conditions: in vivo, 240 h
Homo sapiens [4] = test: Treatment emergent adverse event in intent-to-treat patient with complicated urinary tract infection assessed as headache at 250 […], iv qd for 10 days; type: ADME, organism-based, Urine; design: route intravenous; conditions: in vivo, 240 h
Klebsiella pneumoniae [5] = test: Antibacterial activity against Klebsiella pneumoniae isolated from patient with urinary tract infection receiving drug at 250 mg, iv qd for 10 days measured after post drug therapy; type: functional; conditions: Urine, 240 h
Escherichia coli [6] = test: Antibacterial activity against levofloxacin-resistant Escherichia coli; type: functional
Homo sapiens [7] = test: Treatment emergent adverse event in intent-to-treat patient with complicated urinary tract infection assessed as vomiting at 250 […], iv qd for 10 days; type: ADME, organism-based, Urine; design: route intravenous; conditions: in vivo, 240 h
Homo sapiens [8] = test: Treatment emergent adverse event in intent-to-treat patient with complicated urinary tract infection assessed as hypokalemia at 250 […], iv qd for 10 days; type: ADME, organism-based, Urine; design: route intravenous; conditions: in vivo, 240 h
Pseudomonas aeruginosa [9] = test: Antibacterial activity against Pseudomonas aeruginosa isolated from patient with urinary tract infection receiving drug at 250 mg, iv qd for 10 days measured after post drug therapy; type: functional; conditions: Urine, 240 h
Homo sapiens [10] = test: Drug related treatment emergent adverse event in intent-to-treat patient with complicated urinary tract infection assessed as headache at 250 […], iv qd for 10 days; type: toxicity, organism-based, Urine; design: dose 250 […], route intravenous; conditions: in vivo, 240 h
Homo sapiens [11] = test: Drug related treatment emergent adverse event in intent-to-treat patient with complicated urinary tract infection assessed as phlebitis at 250 […], iv qd for 10 days; type: toxicity, organism-based, Urine; design: dose 250 […], route intravenous; conditions: in vivo, 240 h
Homo sapiens [12] = test: Treatment emergent adverse event in intent-to-treat patient with complicated urinary tract infection assessed as phlebitis at 250 […], iv qd for 10 days; type: organism-based; design: route intravenous; conditions: in vivo, 240 h
Homo sapiens [13] = test: Treatment emergent adverse event in intent-to-treat patient with complicated urinary tract infection assessed as urinary tract infection at 250 […], iv qd for 10 days; type: ADME, organism-based; design: route intravenous; conditions: in vivo, 240 h
Escherichia coli [14] = test: Antibacterial activity against levofloxacin-resistant Escherichia coli infected in clinically evaluable patient with UTI assessed as cure rate at 250 mg, iv qd for 10 days measured at test-of-cure visit; type: functional
Escherichia coli [15] = test: Antibacterial activity against levofloxacin-resistant Escherichia coli infected in microbiologically evaluable patient with UTI assessed as cure rate at 250 mg, iv qd for 10 days measured at test-of-cure visit; type: functional
Homo sapiens [16] = test: Treatment emergent adverse event in intent-to-treat patient with complicated urinary tract infection assessed as >=1 adverse event at 250 […], iv qd for 10 days; type: organism-based, Urine; design: dose 250 mg/kg, route intravenous; conditions: in vivo, 240 h
Homo sapiens [17] = test: Treatment emergent adverse event in intent-to-treat patient with complicated urinary tract infection assessed as back pain at 250 […], iv qd for 10 days; type: organism-based; design: route intravenous; conditions: in vivo, 240 h
Homo sapiens [18] = test: Drug related treatment emergent adverse event in intent-to-treat patient with complicated urinary tract infection assessed as nausea at 250 […], iv qd for 10 days; type: toxicity, organism-based, Urine; design: dose 250 […], route intravenous; conditions: in vivo, 240 h
Homo sapiens [19] = test: Drug related treatment emergent adverse event in intent-to-treat patient with complicated urinary tract infection assessed as >=1 adverse event at 250 […], iv qd for 10 days; type: toxicity, organism-based; design: dose 250 mg/kg, route intravenous; conditions: in vivo, 240 h
Homo sapiens [20] = test: Treatment emergent adverse event in intent-to-treat patient with complicated urinary tract infection assessed as abdominal pain at 250 […], iv qd for 10 days; type: organism-based; design: route intravenous; conditions: in vivo, 240 h
Homo sapiens [21] = test: Treatment emergent adverse event in intent-to-treat patient with complicated urinary tract infection assessed as asymptomatic bacteriuria at 250 […], iv qd for 10 days; type: organism-based, Urine; design: route intravenous; conditions: in vivo, 240 h
Homo sapiens [22] = test: Drug related treatment emergent adverse event in intent-to-treat patient with complicated urinary tract infection assessed as diarrhea at 250 […], iv qd for 10 days; type: toxicity, organism-based; design: dose 250 […], route intravenous; conditions: in vivo, 240 h
Proteus mirabilis [23] = test: Antibacterial activity against levofloxacin-resistant Proteus mirabilis; type: functional
Escherichia coli [24] = test: Antibacterial activity against Escherichia coli infected in microbiologically evaluable patient with UTI assessed as cure rate at 250 mg, iv qd for 10 days measured at test-of-cure visit; type: functional
Homo sapiens [25] = test: Treatment emergent adverse event in intent-to-treat patient with complicated urinary tract infection assessed as diarrhea at 250 […], iv qd for 10 days; type: organism-based; design: route intravenous; conditions: in vivo, 240 h
Homo sapiens [26] = test: Treatment emergent adverse event in intent-to-treat patient with complicated urinary tract infection assessed as upper abdominal pain at 250 […], iv qd for 10 days; type: ADME, organism-based, Urine; design: route intravenous; conditions: in vivo, 240 h
Proteus mirabilis [27] = test: Antibacterial activity against Proteus mirabilis infected in microbiologically evaluable patient with UTI assessed as cure rate at 250 mg, iv qd for 10 days measured at test-of-cure visit; type: functional
Proteus mirabilis [28] = test: Antibacterial activity against Proteus mirabilis isolated from patient with urinary tract infection receiving drug at 250 mg, iv qd for 10 days measured after post drug therapy; type: functional; conditions: Urine, 240 h
Homo sapiens [29] = test: Treatment emergent adverse event in intent-to-treat patient with complicated urinary tract infection assessed as nausea at 250 […], iv qd for 10 days; type: ADME, organism-based, Urine; design: route intravenous; conditions: in vivo, 240 h
Escherichia coli [30] = test: Antibacterial activity against Escherichia coli isolated from patient with urinary tract infection receiving drug at 250 mg, iv qd for 10 days measured after post drug therapy; type: functional; conditions: Urine, 240 h
Homo sapiens [31] = test: Drug related treatment emergent adverse event in intent-to-treat patient with complicated urinary tract infection assessed as upper abdominal pain at 250 […], iv qd for 10 days; type: toxicity, organism-based; design: dose 250 […], route intravenous; conditions: in vivo, 240 h
Klebsiella pneumoniae [32] = test: Antibacterial activity against Klebsiella pneumoniae infected in microbiologically evaluable patient with UTI assessed as cure rate at 250 mg, iv qd for 10 days measured at test-of-cure visit; type: functional
Enterococcus faecalis = test: Antibacterial activity against levofloxacin-resistant Enterococcus faecalis

C[C@H]1COc2c(N3CCN(C)CC3)c(F)cc3c(=O)c(C(=O)O)cn1c23.C[C@H]1COc2c(N3CCN(C)CC3)c(F)cc3c(=O)c(C(=O)O)cn1c23.O [LEVOFLOXACIN]
Activity (Homo sapiens [1]): 4.8% | MIC (Pseudomonas aeruginosa [2]): 32 µg/mL | Activity (Homo sapiens [3]): 3% | Activity (Homo sapiens [4]): 14.5% | MIC (Klebsiella pneumoniae [5]): 2 µg/mL | MIC (Escherichia coli [6]): 32 µg/mL | Activity (Homo sapiens [7]): 4.3% | Activity (Homo sapiens [8]): 3.5% | MIC (Pseudomonas aeruginosa [9]): 0.25 µg/mL | Activity (Homo sapiens [10]): 2.7% | Activity (Homo sapiens [11]): 3% | Activity (Homo sapiens [12]): 4% | Activity (Homo sapiens [13]): 1.6% | Activity (Escherichia coli [14]): 33% | Activity (Escherichia coli [15]): 29% | Activity (Homo sapiens [16]): 60% | Activity (Homo sapiens [17]): 4.6% | Activity (Homo sapiens [18]): 1.6% | Activity (Homo sapiens [19]): 25% | Activity (Homo sapiens [20]): 3.5% | Activity (Homo sapiens [21]): 1.1% | Activity (Homo sapiens [22]): 5.9% | MIC (Proteus mirabilis [23]): 32 µg/mL | Activity (Escherichia coli [24]): 87.2% | Activity (Homo sapiens [25]): 9.9% | Activity (Homo sapiens [26]): 3.5% | Activity (Proteus mirabilis [27]): 86.7% | MIC (Proteus mirabilis [28]): 0.25 µg/mL | Activity (Homo sapiens [29]): 5.9% | MIC (Escherichia coli [30]): 0.25 µg/mL | Activity (Homo sapiens [31]): 2.2% | Activity (Klebsiella pneumoniae [32]): 62.5% | MIC (Enterococcus faecalis): 16 µg/mL
